Legend:
MEG-01 cells = assay: Annexin V-FITC and PI apoptosis assay, MEG-01; format: cell-based, human
Procedure: Flow cytometric analysis. Cells were analyzed using a FACSCalibur flow cytofluorometer (Becton-Dickinson), with CellQuestPro ver. 3.3 software. The data was further analyzed with FlowJo ver. 6.2, and WinMDI 2.8 software. Proper gating was performed to characterize each cell population (MEG-01 cells and platelets). The population that corresponds to platelets (small, granulated particles), is PI negative because thrombocytes are anucleated cells (only the viable cells were considered) and were distinguished by their capacity to become activated, undergoing shape change in response to agonist and to show phosphatidylserine (PS) exposure when activated. Platelets were further separated from the megakaryocytic cells, by differential centrifugation, considering the size difference between these cell populations (1-5 μm for platelets and 35-150 μm for megakaryocytic cell line MEG-01) and analyzed separately. Voltage and channels settings were adjusted accordingly. Analyzed values were obtained with WinMDI ver. 2.8.
(§1) Apoptosis Assays using Flow Cytometry with Annexin V-FITC and propidium iodide (PI). For induction of typical apoptosis, cells were grown in the presence of 1 μM staurosporine (Sigma-Aldrich) for 6 hours. The staurosporine treated cells were stained as follows: control 1 with PI, control 2 with Annexin V-FITC and control 3 both PI and Annexin V-FITC in order to have the brightest controls for compensation and proper collection of the flow cytometry data. Cell necrosis was induced by heat shock (65° C. for 30 minutes). The stained control, both PI and Annexin V-FITC labeled, was then used as the reference in establishing the level of apoptosis induced by the treatments. Data was collected on logarithmic modes, two-colors. Annexin V-FITC corresponds to FL1 H channel, and PI to FL3H or FL2H channels.
(§2) Annexin V-FITC and PI apoptosis assay staining protocol. Apoptosis Annexin V-FITC and PI kit from BD Biosciences, CA, USA, was used. 10^5-10^6 cells were stained with 50 μg/ml PI and with 0.5 μg/ml FITC-labeled Annexin V using the staining protocol provided by the supplier. Samples were then analyzed immediately by flow cytometry.

MEG-01 xenografts = assay: In vivo therapy of MEG-01 xenografts, tumor volume; parameters: species or system mice; details: for tumor volume: subcutaneous in the neck, 2 weeks
Description: Creation of MEG-01 xenografts. Immunodeficient male athymic nude nu/nu mice were used, provided and housed by Dr. Lindner, D J from Taussig Cancer Center, Cleveland Clinic and Case Western Reserve University. The mice were checked every day. The mice were housed in filtered air flow cabinets with autoclaved bedding at a density of 5 mice/cage. They were fed autoclaved Purina Lab Rodent Chow® 5010 and HCl-acidified distilled water ad libitum and were placed in rooms with controlled temperature, humidity and 12-hr light-dark cycles. Procedures involving animals and their care were conducted in conformity with the institutional guidelines that are in compliance with national and international laws and policies (EEC Council Directive 86/609, OJL 358, Dec. 1, 1987, and the National Institutes of Health Guide for the Care and Use of Laboratory, Animals, NIH Publication 85-23, 1985).
For engraftment, cells in cell culture media were injected. MEG-01 myeloid blast crisis cells (10×10^6 cells/100 μl in cell culture media (RPMI 1640 1×, 10% FBS) were injected subcutaneously into the lower flanks of mice (left and right). Cells were counted with a hemacytometer using Trypan blue (only live cells were counted).
After 10 days the mice developed tumors large enough to start the treatment. Tumors were visible after 6-7 days from inoculation. The average weight of the mice typically ranged 30-35 g. Treatment with DMAT was started when tumors were at least 100-200 mm^3 volumes (prolate spheroid). Tumor volumes were calculated as prolate spheroid (4/3*π*(a)^2*(b), where “2a” is the minor axis and “2b” is the major axis of the prolate spheroid. “2a” and “2b” were measured with a caliper (mm). Animals were treated with DMAT for approximately 2 weeks. When tumor volumes reached a size unacceptable with the IACUC protocols, animals were sacrificed in a CO2 euthanasia chamber. Tumors were collected for further histological analysis. […]
In vivo therapy with DMAT of MEG-01 xenografts. […] Tumor diameters were measured using a caliper and tumor volume was calculated using the prolate-spheroid formula. […]

WM-164 cells = assay: Annexin V apoptosis/necrosis assay, WM-164; format: cell-based, human
Procedure: as §1, §2

tumors of HT1376 cells = assay: Murine xenograft of HT1376 cells, tumor volume; format: in vivo, mice; details: DMAT at effective dosage levels (in DMSO) per animal per day, 36 days
Procedure: FIG. 95 illustrates the effect of administration of DMAT s compared to a control over a time period of 36 days. FIG. 95 is a graph of a murine xenograft treated with DMAT, compared to a control. Mice with tumors of HT1376 cells were treated with DMAT at effective dosage levels (in DMSO) per animal per day. The daily animal weight was averaged at 32.5 g at the start of treatment. Tumors were measured daily and tumor volumes were calculated based upon a prolate spheroid model. FIG. 95 illustrates the significant benefits of treatment with DMAT (circles) as compared to the control (squares). Although the tumor size increased for HT1376 cells treated with DMAT, the tumor volume remained approximately one-half of the size as that associated with the untreated HT1376 cells.

## CN(C)c1nc2c(Br)c(Br)c(Br)c(Br)c2[nH]1 [DMAT, 2-dimethylamino-4,5,6,7-tetrabromo-1H-benzimidazole]
MEG-01 cells
  cytotoxicity (necrosis) in MEG-01 cells: without being cytotoxic
MEG-01 cells; 20 μM DMAT, 24 hours, control untreated 0.87%
  level of necrotic cells: 0.39%
MEG-01 cells; 20 μM DMAT, 24 hours, control untreated 8.7%
  level of apoptotic cells: 19%
MEG-01 cells; 24 to 96 hours
  dose and time dependence of induced apoptosis and phenotype change: dose and time dependent
MEG-01 xenografts; DMAT 2 mg (in DMSO) per animal per day
  tumor volume: proliferation arrest in vivo in large tumors and tumor ablation in small tumors
MEG-01 xenografts; DMAT 3 mg (in DMSO) per animal per day
  tumor volume: proliferation arrest in vivo for large tumors and tumor ablation in small tumors
MEG-01 xenografts; mouse, in vivo
  response of xenograft tumors to treatment (summary): tumor ablation
WM-164 cells; 10 μM DMAT, 24 hours, control 4.8%
  level of necrotic cells: 2.0%
WM-164 cells; 10 μM DMAT, 24 hours, control 16.9%
  level of apoptotic cells: 36.8%
WM-164 cells; 20 μM DMAT
  level of apoptic cells: 26.8%
  level of necrotic cells: 4.1%
Tumors of HT1376 cells
  tumor volume relative to untreated HT1376 cells: approximately one-half
